The results in this text go back to ChEMBL document CHEMBL1139028, “Seco-prolinenitrile inhibitors of dipeptidyl peptidase IV define minimal pharmacophore requirements at P1” (Bioorg Med Chem Lett, 2006).

The source made the active and inactive calls. The rule behind the calls is not given here.

One test deals with Dipeptidyl peptidase 4 (Homo sapiens, UniProt P27487). The test can be described thus: Inhibition of DPP4.
Dipeptidyl peptidase 4, sequence (P27487 whole entry): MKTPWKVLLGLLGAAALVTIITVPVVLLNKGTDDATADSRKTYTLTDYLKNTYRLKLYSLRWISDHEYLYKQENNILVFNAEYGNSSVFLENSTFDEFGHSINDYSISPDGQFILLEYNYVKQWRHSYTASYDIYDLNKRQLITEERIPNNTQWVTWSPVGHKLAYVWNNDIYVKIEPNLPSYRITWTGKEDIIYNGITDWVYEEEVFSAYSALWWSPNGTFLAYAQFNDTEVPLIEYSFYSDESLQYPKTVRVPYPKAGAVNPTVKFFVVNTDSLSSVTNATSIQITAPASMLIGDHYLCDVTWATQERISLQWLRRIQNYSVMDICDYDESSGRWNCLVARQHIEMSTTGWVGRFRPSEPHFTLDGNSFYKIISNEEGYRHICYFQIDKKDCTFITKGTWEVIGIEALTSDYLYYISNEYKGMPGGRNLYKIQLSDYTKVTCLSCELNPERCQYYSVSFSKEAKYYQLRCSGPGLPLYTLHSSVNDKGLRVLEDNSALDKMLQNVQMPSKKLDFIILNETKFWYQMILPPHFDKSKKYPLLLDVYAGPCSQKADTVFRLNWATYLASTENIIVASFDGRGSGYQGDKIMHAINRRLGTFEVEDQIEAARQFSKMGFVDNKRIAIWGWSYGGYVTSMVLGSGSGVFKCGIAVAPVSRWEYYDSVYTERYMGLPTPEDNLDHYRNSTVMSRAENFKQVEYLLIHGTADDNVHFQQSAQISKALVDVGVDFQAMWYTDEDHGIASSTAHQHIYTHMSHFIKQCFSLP
In general, Ki refers to the dissociation constant of the complex between target and ligand, obtained from inhibition or displacement. A higher Ki goes with weaker binding. Take `CCCCN(CC#N)C(=O)[C@@H](N)C(C)(C)C`: the Ki is > 10 µM. With `CC(C)(C#N)NC(=O)[C@@H](N)C(C)(C)C`, the Ki was > 10 µM. Regarding `CC(C)(C#N)NC(=O)[C@@H](N)C12CC3CC(CC(C3)C1)C2`, the Ki was > 10 µM. Still for that read-out and setting: the same measure for `N#CCNC(=O)[C@@H](N)C12CC3CC(CC(C3)C1)C2`: > 10 µM; for `N#CCN(Cc1ccccc1)C(=O)[C@@H](N)C12CC3CC(CC(C3)C1)C2`: > 10 µM.

The subject of another test is Rattus norvegicus. The test can be described thus: Antihyperglycemic activity in Zucker fa/fa rat by oral glucose tolerance test at 3 umol/kg, po. The class given is functional, organism-based.
For `CN(CC#N)C(=O)[C@@H](N)C12CC3CC(CC(O)(C3)C1)C2`, the outcome was Active.
